The target of the first test is Human Factor D (Homo sapiens (Human), UniProt P00746). Briefly: Human Factor D Assay. Format: biochemical.
Chain of Human Factor D (P00746 26-253): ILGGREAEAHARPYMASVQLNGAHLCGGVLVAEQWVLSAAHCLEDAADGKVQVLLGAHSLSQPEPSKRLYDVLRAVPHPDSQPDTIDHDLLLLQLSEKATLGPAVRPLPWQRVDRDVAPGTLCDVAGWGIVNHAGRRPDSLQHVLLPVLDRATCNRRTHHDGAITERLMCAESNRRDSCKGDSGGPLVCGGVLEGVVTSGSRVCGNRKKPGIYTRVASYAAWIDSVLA
Conditions: not given
A digest of the protocol: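 Serum-purified human Factor D (80 nM final) was preincubated with test compound at various concentrations for 5 min at room temperature in 50 mM Tris, 1M NaCl, pH 7.5. Z-L-Lys-SBzl and DTNB were then added at 100 μM each. IC50 came from nonlinear regression of reaction rates versus compound concentration.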
What is called IC50 is the concentration needed to halve the response being measured. Compound `NC(=O)c1nn(CC(=O)N2C[C@H](F)C[C@H]2C(=O)NCc2ccccn2)c2ccc(-c3ccnnc3)cc12` [Compound 139, 1-(2-((2S,4R)-4-fluoro-2-(pyridin-2-ylmethylcarbamoyl)pyrrolidin-1-yl)-2-oxoethyl)-5-(pyridazin-4-yl)-1H-indazole-3-carboxamide] gave a half-inhibitory concentration (IC50) of 1 to 10 µM.

For `CC(=O)c1cn(CC(=O)N2C[C@H](F)C[C@H]2C(=O)NC2CCCN(c3cnn(C)c3)C2)c2ccc(-c3ccnnc3)cc12` (stereo partly drawn) [Compound 140, (2S,4R)-1-(2-(3-acetyl-5-(pyridazin-4-yl)-1H-indol-1-yl)acetyl)-4-fluoro-N-(1-(1-methyl-1H-pyrazol-4-yl)piperidin-3-yl)pyrrolidine-2-carboxamide], the IC50 was 1 to 10 µM. `CC(=O)c1cn(CC(=O)N2C[C@H](F)C[C@H]2C(=O)Nc2cccc(-c3ccccc3Cl)c2Cl)c2ccc(-c3cnc(C)nc3)cc12` [Compound 149, (2S,4R)-1-(2-(3-acetyl-5-(2-methylpyrimidin-5-yl)-1H-indol-1-yl)acetyl)-N-(2,2′-dichlorobiphenyl-3-yl)-4-fluoropyrrolidine-2-carboxamide] gave a 50% inhibitory concentration (IC50) below 1 µM.

Staying with this test, now noted: Human Factor D 80 nM, substrate Z-L-Lys-SBzl; read-out: IC50.
On to `Cn1cc(N2CCCC(NC(=O)[C@@H]3C[C@@H](F)CN3C(=O)Cn3nc(C(N)=O)c4cc(-c5ccnnc5)ccc43)C2)cn1` (stereo partly drawn) [Compound 141, 1-(2-((2S,4R)-4-fluoro-2-(1-(1-methyl-1H-pyrazol-4-yl)piperidin-3-ylcarbamoyl)pyrrolidin-1-yl)-2-oxoethyl)-5-(pyridazin-4-yl)-1H-indazole-3-carboxamide], for which the IC50 was above 10 µM. Take `CC(=O)c1cn(CC(=O)N2C[C@H](F)C[C@H]2C(=O)N[C@@H]2CCC[C@H]2O)c2ccc(-c3ccnnc3)cc12` [Compound 143, (2S,4R)-1-(2-(3-acetyl-5-(pyridazin-4-yl)-1H-indol-1-yl)acetyl)-4-fluoro-N-((1R,2R)-2-hydroxycyclopentyl) pyrrolidine-2-carboxamide]: the IC50 was above 10 µM. Take `CC(=O)c1cn(CC(=O)N2C[C@H](F)C[C@H]2C(=O)Nc2cccc(O)n2)c2ccc(-c3ccnnc3)cc12` [Compound 144, (2S,4R)-1-(2-(3-acetyl-5-(pyridazin-4-yl)-1H-indol-1-yl)acetyl)-4-fluoro-N-(6-hydroxypyridin-2-yl)pyrrolidine-2-carboxamide]: the IC50 is above 10 µM. Turning to `NC(=O)c1nn(CC(=O)N2C[C@H](F)C[C@H]2C(=O)N[C@@H]2CCC[C@H]2O)c2ccc(-c3ccnnc3)cc12` [Compound 145, 1-(2-((2S,4R)-4-fluoro-2-((1R,2R)-2-hydroxycyclopentylcarbamoyl)pyrrolidin-1-yl)-2-oxoethyl)-5-(pyridazin-4-yl)-1H-indazole-3-carboxamide], the IC50 is above 10 µM. As to `NC(=O)c1nn(CC(=O)N2C[C@H](F)C[C@H]2C(=O)Nc2nc(-c3cccc(Cl)c3)ns2)c2ccc(-c3ccnnc3)cc12` [Compound 146, 1-(2-((2S,4R)-2-(3-(3-chlorophenyl)-1,2,4-thiadiazol-5-ylcarbamoyl)-4-fluoropyrrolidin-1-yl)-2-oxoethyl)-5-(pyridazin-4-yl)-1H-indazole-3-carboxamide], the IC50 is above 10 µM. On to `CC(=O)c1cn(CC(=O)N2C[C@H](F)C[C@H]2C(=O)Nc2nc(-c3cccc(Cl)c3)ns2)c2ccc(-c3ccnnc3)cc12` [Compound 147, (2S,4R)-1-(2-(3-acetyl-5-(pyridazin-4-yl)-1H-indol-1-yl)acetyl)-N-(3-(3-chlorophenyl)-1,2,4-thiadiazol-5-yl)-4-fluoropyrrolidine-2-carboxamide], for which the IC50 was above 10 µM.

As to `CC(=O)c1cn(CC(=O)N2C[C@H](F)C[C@H]2C(=O)Nc2cccc(-c3cc(F)c(F)cc3Cl)c2F)c2ccc(-c3cnc(C)nc3)cc12` [Compound 150, (2S,4R)-1-(2-(3-acetyl-5-(2-methylpyrimidin-5-yl)-1H-indol-1-yl)acetyl)-N-(2′-chloro-2,4′,5′-trifluorobiphenyl-3-yl)-4-fluoropyrrolidine-2-carboxamide], the IC50 is below 1 µM.

`CC(=O)c1cn(CC(=O)N2C[C@H](F)C[C@H]2C(=O)Nc2cccc(-c3ccccc3Cl)c2F)c2ccc(-c3ccc(C)nc3)cc12` [Compound 151, (2S,4R)-1-(2-(3-acetyl-5-(6-methylpyridin-3-yl)-1H-indol-1-yl)acetyl)-N-(2′-chloro-2-fluorobiphenyl-3-yl)-4-fluoropyrrolidine-2-carboxamide]: the IC50 was below 1 µM.

As to `CC1Oc2cccc(NC(=O)[C@@H]3C[C@@H](F)CN3C(=O)Cn3nc(C(N)=O)c4cc(-c5ccnnc5)ccc43)c2NC1=O` (stereo partly drawn) [Compound 152, 1-(2-((2S,4R)-4-fluoro-2-(2-methyl-3-oxo-3,4-dihydro-2H-benzo[b][1,4]oxazin-5-ylcarbamoyl)pyrrolidin-1-yl)-2-oxoethyl)-5-(pyridazin-4-yl)-1H-indazole-3-carboxamide], the IC50 was above 10 µM. `CC(=O)c1cn(CC(=O)N2C[C@H](F)C[C@H]2C(=O)Nc2cccc3c2NC(=O)C(C)O3)c2ccc(-c3ccnnc3)cc12` (stereo partly drawn) [Compound 153, (2S,4R)-1-(2-(3-acetyl-5-(pyridazin-4-yl)-1H-indol-1-yl)acetyl)-4-fluoro-N-(2-methyl-3-oxo-3,4-dihydro-2H-benzo[b][1,4]oxazin-5-yl)pyrrolidine-2-carboxamide]: the IC50 was above 10 µM. Regarding `NC(=O)c1nn(CC(=O)N2C[C@H](F)C[C@H]2C(=O)Nc2cc(O)ccn2)c2ccc(-c3ccnnc3)cc12` [Compound 154, 1-(2-((2S,4R)-4-fluoro-2-(4-hydroxypyridin-2-ylcarbamoyl)pyrrolidin-1-yl)-2-oxoethyl)-5-(pyridazin-4-yl)-1H-indazole-3-carboxamide], the IC50 was above 10 µM. Same read-out and setting: in the case of `Cn1ccc(N2CCC(NC(=O)[C@@H]3C[C@@H](F)CN3C(=O)Cn3nc(C(N)=O)c4cc(-c5ccnnc5)ccc43)C2=O)n1` (stereo partly drawn) [Compound 155, 1-(2-((2S,4R)-4-fluoro-2-(1-(1-methyl-1H-pyrazol-3-yl)-2-oxopyrrolidin-3-ylcarbamoyl)pyrrolidin-1-yl)-2-oxoethyl)-5-(pyridazin-4-yl)-1H-indazole-3-carboxamide] it was above 10 µM. As for `CC(=O)c1cn(CC(=O)N2C[C@H](F)C[C@H]2C(=O)Nc2c[nH]nc2-c2ccc(Cl)cc2Cl)c2ccc(-c3ccnnc3)cc12` [Compound 156, (2S,4R)-1-(2-(3-acetyl-5-(pyridazin-4-yl)-1H-indol-1-yl)acetyl)-N-(3-(2,4-dichlorophenyl)-1H-pyrazol-4-yl)-4-fluoropyrrolidine-2-carboxamide], the IC50 was above 10 µM. With `NC(=O)c1nn(CC(=O)N2C[C@H](F)C[C@H]2C(=O)NCc2ccncc2)c2ccc(-c3ccnnc3)cc12` [Compound 157, 1-(2-((2S,4R)-4-fluoro-2-(pyridin-4-ylmethylcarbamoyl)pyrrolidin-1-yl)-2-oxoethyl)-5-(pyridazin-4-yl)-1H-indazole-3-carboxamide], the IC50 was above 10 µM. For `Cc1cc(NC(=O)[C@@H]2C[C@@H](F)CN2C(=O)Cn2nc(C(N)=O)c3cc(-c4ccnnc4)ccc32)n(-c2ccccc2F)n1` [Compound 158, 1-(2-((2S,4R)-4-fluoro-2-(1-(2-fluorophenyl)-3-methyl-1H-pyrazol-5-ylcarbamoyl)pyrrolidin-1-yl)-2-oxoethyl)-5-(pyridazin-4-yl)-1H-indazole-3-carboxamide], the IC50 was above 10 µM. `CC(=O)c1cn(CC(=O)N2C[C@@H](F)C[C@@H]2C(=O)NC2CCCN(c3ccccc3Cl)C2=O)c2ccc(-c3ccnnc3)cc12` (stereo partly drawn) [Compound 161, (2R,4S)-1-(2-(3-acetyl-5-(pyridazin-4-yl)-1H-indol-1-yl)acetyl)-N-(1-(2-chlorophenyl)-2-oxopiperidin-3-yl)-4-fluoropyrrolidine-2-carboxamide]: the IC50 is below 1 µM. On the same count and under the same terms, in the case of `CC(=O)c1nn(CC(=O)N2C[C@H](F)C[C@H]2C(=O)Nc2cccc(-c3ccccc3Cl)c2F)c2ccc(-c3cnc(C)nc3)cc12` [Compound 163, (2S,4R)-1-(2-(3-acetyl-5-(2-methylpyrimidin-5-yl)-1H-indazol-1-yl)acetyl)-N-(2′-chloro-2-fluorobiphenyl-3-yl)-4-fluoropyrrolidine-2-carboxamide] it was below 1 µM; in that of `CC(=O)c1cn(CC(=O)N2C[C@H](F)C[C@H]2C(=O)Nc2cccc(-c3ncccc3Cl)c2F)c2ccc(-c3cnc(C)nc3)cc12` [Compound 164, (2S,4R)-1-(2-(3-acetyl-5-(2-methylpyrimidin-5-yl)-1H-indol-1-yl)acetyl)-N-(3-(3-chloropyridin-2-yl)-2-fluorophenyl)-4-fluoropyrrolidine-2-carboxamide], below 1 µM. Turning to `NC(=O)c1nn(CC(=O)N2C[C@H](F)C[C@H]2C(=O)Nc2cc(=O)[nH]n2C2CCCCC2)c2ccc(-c3ccnnc3)cc12` [Compound 168, 1-(2-((2S,4R)-2-(2-cyclohexyl-5-oxo-2,5-dihydro-1H-pyrazol-3-ylcarbamoyl)-4-fluoropyrrolidin-1-yl)-2-oxoethyl)-5-(pyridazin-4-yl)-1H-indazole-3-carboxamide], the IC50 is above 10 µM. Take `CC(=O)c1cn(CC(=O)N2C[C@H](F)C[C@H]2C(=O)Nc2n[nH]c(C)c2-c2ccccc2)c2ccc(-c3ccnnc3)cc12` [Compound 169, (2S,4R)-1-(2-(3-acetyl-5-(pyridazin-4-yl)-1H-indol-1-yl)acetyl)-4-fluoro-N-(5-methyl-4-phenyl-1H-pyrazol-3-yl)pyrrolidine-2-carboxamide]: the 50% inhibitory concentration (IC50) was below 1 µM. As to `NC(=O)c1nn(CC(=O)N2C[C@H](F)C[C@H]2C(=O)N[C@H]2CCCC[C@@H]2O)c2ccc(-c3ccnnc3)cc12` [Compound 172, 1-(2-((2S,4R)-4-fluoro-2-((1S,2S)-2-hydroxycyclohexylcarbamoyl)pyrrolidin-1-yl)-2-oxoethyl)-5-(pyridazin-4-yl)-1H-indazole-3-carboxamide], the IC50 is above 10 µM.

Turning to `CC(=O)c1cn(CC(=O)N2C[C@H](F)C[C@H]2C(=O)Nc2ccnc(=O)n2C)c2ccc(-c3ccnnc3)cc12` [Compound 173, (2S,4R)-1-(2-(3-acetyl-5-(pyridazin-4-yl)-1H-indol-1-yl)acetyl)-4-fluoro-N-(3-methyl-2-oxo-2,3-dihydropyrimidin-4-yl)pyrrolidine-2-carboxamide], the IC50 was above 10 µM.

(Values after US10287301B2 (Achillion Pharmaceuticals, Inc., priority 2015, dated 2019).)
